From patent US20140335186A1, “METHODS AND COMPOSITIONS FOR ENHANCING CD4+ REGULATORY T CELLS” (Selecta Biosciences, Inc., priority 2013, published 2014) come the findings set out here.

The subject of the assay is CD4+ OTII cells (CD25+Fox3p+ regulatory T cell phenotype). Put plainly: Induction of CD4+ regulatory T cells: CD4+ OTII cells transferred into SJL mice, flow cytometry of popliteal lymph nodes. Format: in vivo, mouse. As to conditions: s.c. hind limbs on days 1 and 5, popliteal lymph nodes on day 10. The source says:
In order to monitor the determine the effect of immunosuppressant attached to synthetic nanocarriers on the development of CD4+ regulatory T cells, CD4+ T cells were purified from the transgenic mouse strain OTII using negative selection by magnetic-activated cell sorting (MACS). OTII mice express a T cell receptor specific for the chicken ovalbumin peptide OVA323-339. Following isolation, 4×10^6 CD4+ OTII cells were transferred into SJL mice congenically expressing the pan-leukocyte marker CD45.1 (Ptprc^a) (SJL-Prprc^a/BoyAiTac).
On day 10, 5 days following the second administration of the indicated treatment, the animlas were sacrified and the popliteal lymph nodes that drain the site of injection were harvested to analyze developmental status and quantify the CD4+ OTII cells that had been transferred into the SJL mice by flow cytometry.
Background: In flow cytometry, cells or beads pass a laser one at a time.

Consider “fOPII.323: free chicken ovalbumin peptide OVA323-339 (KISQAVHAAHAEINEAG; UniProt P01012 323-339, looked up, fragment)”, for which the “proportion of transferred OTII cells with regulatory T cell phenotype (CD25+Fox3p+), FIG. 1” value is “detectable but not statisitically significant increase”.
